The source of these data is ChEMBL document CHEMBL1671789, “Evaluation of quinazoline analogues as glucocerebrosidase inhibitors with chaperone activity” (J Med Chem, 2011).

The source made the active and inactive calls. No rule for the calls is given here.
Also: test concentration or dose not given here.

The nature of the first assay: Inhibition of alpha-galactosidase.
Take `Cc1ccc(S(=O)(=O)N2CCN(c3nc(-c4ccoc4)nc4ccccc34)CC2)cc1`: the outcome was inactive.

In the case of `Cc1ccc(S(=O)(=O)N2CCN(c3nc(-c4ncco4)nc4ccccc34)CC2)cc1`, the outcome was inactive.

`CC1(C)CCc2cc(S(=O)(=O)N3CCN(c4nc(-c5cccs5)nc5ccccc45)CC3)ccc2O1`: the outcome was inactive.

For the compound `O=[N+]([O-])c1cccc(S(=O)(=O)N2CCN(c3nc(-c4cccs4)nc4ccccc34)CC2)c1`, the outcome was inactive.

On to `O=S(=O)(c1ccc2c(c1)CCC2)N1CCN(c2nc(-c3ccccc3)nc3ccccc23)CC1`, for which the result was inactive.

As for `O=S(=O)(c1ccc2ncccc2c1)N1CCN(c2nc(-c3cccs3)nc3ccccc23)CC1`, the outcome was inactive.

As for `Cc1ccc(S(=O)(=O)N2CCN(c3nc(-c4cccs4)nc4ccccc34)CC2)c(C)c1`, the outcome was inactive.

As to `O=S(=O)(c1nccs1)N1CCN(c2nc(-c3cccs3)nc3ccccc23)CC1`, the outcome was inactive.

With `COc1ccc(S(=O)(=O)N2CCN(c3nc(-c4ccccc4)nc4ccccc34)CC2)cc1`, the outcome was inactive.

For `N#Cc1ccccc1S(=O)(=O)N1CCN(c2nc(-c3cccs3)nc3ccccc23)CC1`, the outcome was inactive.

With `CC(C)(C)c1ccc(S(=O)(=O)N2CCN(c3nc(-c4cccs4)nc4ccccc34)CC2)cc1`, the result was inactive.

Consider `O=S(=O)(c1ccc(Br)cc1)N1CCN(c2nc(-c3ccccc3)nc3ccccc23)CC1`, for which the outcome was inactive.

For `O=S(=O)(c1ccc(C(F)(F)F)cc1)N1CCN(c2nc(-c3cccs3)nc3ccccc23)CC1`, the result was inactive.

`CN1CCOc2cc(S(=O)(=O)N3CCN(c4nc(-c5cccs5)nc5ccccc45)CC3)ccc21`: the outcome was inactive.

On to `O=S(=O)(c1ccc(OC(F)(F)F)cc1)N1CCN(c2nc(-c3ccccc3)nc3ccccc23)CC1`, for which the outcome was inactive.

As to `O=S(=O)(N1CCN(c2nc(-c3cccs3)nc3ccccc23)CC1)C(F)(F)F`, the result was inactive.

Take `O=S(=O)(c1cccc(Cl)c1)N1CCN(c2nc(-c3cccs3)nc3ccccc23)CC1`: the outcome was inactive.

`Cc1cc(C)cc(S(=O)(=O)N2CCN(c3nc(-c4cccs4)nc4ccccc34)CC2)c1`: the outcome was inactive.

Turning to `O=S(=O)(c1ccc2ccccc2c1)N1CCN(c2nc(-c3ccccc3)nc3ccccc23)CC1`, the result was inactive.

As for `O=S(=O)(c1cccc(F)c1)N1CCN(c2nc(-c3cccs3)nc3ccccc23)CC1`, the outcome was inactive.

Turning to `NS(=O)(=O)c1ccc(S(=O)(=O)N2CCN(c3nc(-c4cccs4)nc4ccccc34)CC2)cc1`, the outcome was inactive.

On to `O=S(=O)(c1ccccc1C(F)(F)F)N1CCN(c2nc(-c3cccs3)nc3ccccc23)CC1`, for which the outcome was inactive.

On to `O=S(=O)(c1ccccc1Cl)N1CCN(c2nc(-c3cccs3)nc3ccccc23)CC1`, for which the outcome was inactive.

With `COc1ccc(-c2nc(N3CCN(S(=O)(=O)c4ccc(C)cc4)CC3)c3ccccc3n2)cc1`, the outcome was inactive.

For the compound `O=S(=O)(c1ccc2ncsc2c1)N1CCN(c2nc(-c3cccs3)nc3ccccc23)CC1`, the result was inactive.

Take `O=S(=O)(c1ccccc1Br)N1CCN(c2nc(-c3ccccc3)nc3ccccc23)CC1`: the result was inactive.

With `CC(C)(C)c1ccc(S(=O)(=O)N2CCN(c3nc(-c4ccccc4)nc4ccccc34)CC2)cc1`, the outcome was inactive.

Turning to `CC(C)S(=O)(=O)N1CCN(c2nc(-c3cccs3)nc3ccccc23)CC1`, the result was inactive.

As for `COc1ccc(S(=O)(=O)N2CCN(c3nc(-c4cccs4)nc4ccccc34)CC2)cc1`, the outcome was inactive.

`Cc1ccc(S(=O)(=O)N2CCN(c3nc(-c4cscn4)nc4ccccc34)CC2)cc1`: the result was inactive.

Turning to `Cc1ccc(S(=O)(=O)N(C)CCCN(C)c2nc(-c3cccs3)nc3ccccc23)cc1`, the outcome was inactive.

With `CC(=O)c1ccccc1S(=O)(=O)N1CCN(c2nc(-c3cccs3)nc3ccccc23)CC1`, the outcome was inactive.

`CCOC(=O)c1ccc(S(=O)(=O)N2CCN(c3nc(-c4cccs4)nc4ccccc34)CC2)cc1`: the result was inactive.

Regarding `O=S(=O)(c1ccc2c(Cl)cccc2c1)N1CCN(c2nc(-c3cccs3)nc3ccccc23)CC1`, the result was inactive.

Consider `O=S(=O)(c1cccc(Br)c1)N1CCN(c2nc(-c3cccs3)nc3ccccc23)CC1`, for which the outcome was inactive.

Take `Cc1ccc(S(=O)(=O)N2CCN(c3nc(-c4cccs4)nc4ncccc34)CC2)cc1`: the result was inactive.

With `Oc1ccc(N2CCN(c3nc(-c4cccs4)nc4ccccc34)CC2)cc1`, the result was inactive.

For the compound `O=S(=O)(c1cccc(Cl)c1)N1CCN(c2nc(-c3ccccc3)nc3ccccc23)CC1`, the result was inactive.

Consider `Cc1ccc(S(=O)(=O)N2CCN(c3nc(-c4cncs4)nc4ccccc34)CC2)cc1`, for which the result was inactive.

A further assay can be described thus: Inhibition of alpha-glucosidase.
With `Cc1ccc(S(=O)(=O)N2CCN(c3nc(-c4ccoc4)nc4ccccc34)CC2)cc1`, the result was inactive.

On to `Cc1ccc(S(=O)(=O)N2CCN(c3nc(-c4ncco4)nc4ccccc34)CC2)cc1`, for which the outcome was inactive.

`CC1(C)CCc2cc(S(=O)(=O)N3CCN(c4nc(-c5cccs5)nc5ccccc45)CC3)ccc2O1`: the result was inactive.

In the case of `O=[N+]([O-])c1cccc(S(=O)(=O)N2CCN(c3nc(-c4cccs4)nc4ccccc34)CC2)c1`, the result was inactive.

Consider `O=S(=O)(c1ccc2c(c1)CCC2)N1CCN(c2nc(-c3ccccc3)nc3ccccc23)CC1`, for which the result was inactive.

For the compound `O=S(=O)(c1ccc2ncccc2c1)N1CCN(c2nc(-c3cccs3)nc3ccccc23)CC1`, the result was inactive.

With `Cc1ccc(S(=O)(=O)N2CCN(c3nc(-c4cccs4)nc4ccccc34)CC2)c(C)c1`, the result was inactive.

On to `O=S(=O)(c1nccs1)N1CCN(c2nc(-c3cccs3)nc3ccccc23)CC1`, for which the outcome was inactive.

For the compound `COc1ccc(S(=O)(=O)N2CCN(c3nc(-c4ccccc4)nc4ccccc34)CC2)cc1`, the result was inactive.

For `N#Cc1ccccc1S(=O)(=O)N1CCN(c2nc(-c3cccs3)nc3ccccc23)CC1`, the outcome was inactive.

`CC(C)(C)c1ccc(S(=O)(=O)N2CCN(c3nc(-c4cccs4)nc4ccccc34)CC2)cc1`: the result was inactive.

For `O=S(=O)(c1ccc(Br)cc1)N1CCN(c2nc(-c3ccccc3)nc3ccccc23)CC1`, the outcome was inactive.

Take `O=S(=O)(c1ccc(C(F)(F)F)cc1)N1CCN(c2nc(-c3cccs3)nc3ccccc23)CC1`: the result was inactive.

`CN1CCOc2cc(S(=O)(=O)N3CCN(c4nc(-c5cccs5)nc5ccccc45)CC3)ccc21`: the result was inactive.

`O=S(=O)(c1ccc(OC(F)(F)F)cc1)N1CCN(c2nc(-c3ccccc3)nc3ccccc23)CC1`: the outcome was inactive.

Regarding `O=S(=O)(N1CCN(c2nc(-c3cccs3)nc3ccccc23)CC1)C(F)(F)F`, the result was inactive.

As to `O=S(=O)(c1cccc(Cl)c1)N1CCN(c2nc(-c3cccs3)nc3ccccc23)CC1`, the outcome was inactive.

As for `Cc1cc(C)cc(S(=O)(=O)N2CCN(c3nc(-c4cccs4)nc4ccccc34)CC2)c1`, the outcome was inactive.

For the compound `O=S(=O)(c1ccc2ccccc2c1)N1CCN(c2nc(-c3ccccc3)nc3ccccc23)CC1`, the outcome was inactive.

As for `O=S(=O)(c1cccc(F)c1)N1CCN(c2nc(-c3cccs3)nc3ccccc23)CC1`, the outcome was inactive.

In the case of `NS(=O)(=O)c1ccc(S(=O)(=O)N2CCN(c3nc(-c4cccs4)nc4ccccc34)CC2)cc1`, the outcome was inactive.

In the case of `O=S(=O)(c1ccccc1C(F)(F)F)N1CCN(c2nc(-c3cccs3)nc3ccccc23)CC1`, the result was inactive.

Regarding `O=S(=O)(c1ccccc1Cl)N1CCN(c2nc(-c3cccs3)nc3ccccc23)CC1`, the result was inactive.

Regarding `COc1ccc(-c2nc(N3CCN(S(=O)(=O)c4ccc(C)cc4)CC3)c3ccccc3n2)cc1`, the result was inactive.

In the case of `O=S(=O)(c1ccc2ncsc2c1)N1CCN(c2nc(-c3cccs3)nc3ccccc23)CC1`, the outcome was inactive.

For the compound `O=S(=O)(c1ccccc1Br)N1CCN(c2nc(-c3ccccc3)nc3ccccc23)CC1`, the outcome was inactive.

In the case of `CC(C)(C)c1ccc(S(=O)(=O)N2CCN(c3nc(-c4ccccc4)nc4ccccc34)CC2)cc1`, the result was inactive.

Consider `CC(C)S(=O)(=O)N1CCN(c2nc(-c3cccs3)nc3ccccc23)CC1`, for which the outcome was inactive.

Turning to `COc1ccc(S(=O)(=O)N2CCN(c3nc(-c4cccs4)nc4ccccc34)CC2)cc1`, the outcome was inactive.

On to `Cc1ccc(S(=O)(=O)N2CCN(c3nc(-c4cscn4)nc4ccccc34)CC2)cc1`, for which the outcome was inactive.

Consider `Cc1ccc(S(=O)(=O)N(C)CCCN(C)c2nc(-c3cccs3)nc3ccccc23)cc1`, for which the outcome was inactive.

As to `CC(=O)c1ccccc1S(=O)(=O)N1CCN(c2nc(-c3cccs3)nc3ccccc23)CC1`, the result was inactive.

In the case of `CCOC(=O)c1ccc(S(=O)(=O)N2CCN(c3nc(-c4cccs4)nc4ccccc34)CC2)cc1`, the result was inactive.

`O=S(=O)(c1ccc2c(Cl)cccc2c1)N1CCN(c2nc(-c3cccs3)nc3ccccc23)CC1`: the result was inactive.

`O=S(=O)(c1cccc(Br)c1)N1CCN(c2nc(-c3cccs3)nc3ccccc23)CC1`: the result was inactive.

In the case of `Cc1ccc(S(=O)(=O)N2CCN(c3nc(-c4cccs4)nc4ncccc34)CC2)cc1`, the outcome was inactive.

For the compound `Oc1ccc(N2CCN(c3nc(-c4cccs4)nc4ccccc34)CC2)cc1`, the result was inactive.

As for `O=S(=O)(c1cccc(Cl)c1)N1CCN(c2nc(-c3ccccc3)nc3ccccc23)CC1`, the outcome was inactive.

Turning to `Cc1ccc(S(=O)(=O)N2CCN(c3nc(-c4cncs4)nc4ccccc34)CC2)cc1`, the outcome was inactive.
